Positions of bridges follow the written chain, without caps; N, C: chain ends. Non-standard residues stand in square brackets, D forms with d. Residues, ends and D or L forms follow the SMILES beside them. Thz = O=C(O)[C@@H]1CSCN1

By EC50 is commonly meant the concentration at which the effect is half-maximal.

The assay deals with T1, human MC4R (Homo sapiens, UniProt P32245).
T1 construct: expressed in transfected cells
Kind of assay: Functional cAMP assay (CisBio HTRF) in BHK cells expressing human MC4R. It is filed as cell-based. A digest of the protocol: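 Compound working solutions, 10-fold dilutions from 2 μM at twice final strength, in buffer containing 1 mM IBMX, were incubated 30 min at 25 °C with BHK cells stably carrying human MC4R or MC1R. Accumulated cAMP was then detected by competitive HTRF after 1 h at 25 °C and fitted by non-linear regression.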

T1 sequence (P32245 whole entry): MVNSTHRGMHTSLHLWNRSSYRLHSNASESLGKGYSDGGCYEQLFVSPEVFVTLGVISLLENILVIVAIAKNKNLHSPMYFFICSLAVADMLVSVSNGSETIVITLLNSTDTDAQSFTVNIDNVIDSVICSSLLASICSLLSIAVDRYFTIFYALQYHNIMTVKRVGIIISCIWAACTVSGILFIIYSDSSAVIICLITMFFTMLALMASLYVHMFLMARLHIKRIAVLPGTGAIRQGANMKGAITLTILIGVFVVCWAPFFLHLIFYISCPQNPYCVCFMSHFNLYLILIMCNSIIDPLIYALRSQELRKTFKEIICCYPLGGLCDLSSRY

For `C[C@@H]1NC(=O)[C@H](CCCCN)NC(=O)[C@@H]2CSSC[C@H](NC(=O)[C@H](Cc3c[nH]c4ccccc34)NC(=O)[C@H](C)NC(=O)[C@@H](CCCCN)NC1=O)C(=O)N1CSC[C@H]1C(=O)N[C@@H](Cc1c[nH]cn1)C(=O)N[C@H](Cc1ccccc1)C(=O)N[C@@H](Cc1c[nH]cn1)C(=O)N[C@@H](Cc1c[nH]c3ccccc13)C(=O)N2` [Chem. 114, c[c[Cys-THAZ-His-D-Phe-His-Trp- Cys]-Lys-Ala-D-Lys-Ala-Trp]] (cyclo(AWC[Thz]H[dF]HWCKA[dK]); disulfide 3-9), the EC50 (BHK cells expressing human MC4R, '>' = highest dose used with no response, read-out: MC4R cAMP EC50) came to 0.04 nM. Besides, the “MC1R/MC4R cAMP EC50 ratio” value (MC1R cAMP EC50 divided by MC4R cAMP EC50) is given as 2844.

For the origin of these results see patent US20200223889A1, “Bicyclic Compounds Capable of Binding to Melanocortin 4 Receptor” (Novo Nordisk A/S, priority 2017, published 2020).
